This is an account of results in PubChem BioAssay (NCI).

Holding throughout (test): NCI-60 cell line screen, 48 h
For experiment [1], the system named is SK-MEL-5 melanoma.
Experiment [2] has as its system RXF 393 renal.
The subject of experiment [3] is MDA-MB-231 breast.
Experiment [4] concerns MALME-3M melanoma.
In experiment [5] the test system is HOP-92 NSCLC.
The subject of experiment [6] is CAKI-1 renal.
In experiment [7] the test system is HCT-116 colon.
Experiment [8] concerns COLO 205 colon.
For experiment [9], the system named is SK-OV-3 ovarian.
For experiment [10], the system named is KM12 colon.
In experiment [11] the test system is BT-549 breast.
Experiment [12] concerns A549 NSCLC.
Experiment [13] concerns MDA-N.
Experiment [14] concerns MOLT-4 leukemia.
Experiment [15] deals with HOP-62 NSCLC.
Experiment [16] has as its system EKVX NSCLC.
Experiment [17] concerns UACC-257 melanoma.
For experiment [18], the system named is RPMI-8226 leukemia.
Experiment [19] deals with NCI-H23 lung.

The structures appear in SMILES notation.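 Cells were grown in 96-well plates and exposed to each compound for 48 hours at five concentrations; endpoints were interpolated linearly between bracketing concentrations, or set to the highest concentration if not reached. At the TGI there is no net growth.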 Where a SMILES comes first, the peptide text is derived from it. The star is where a group is joined. Fmoc = O=C(OCC1c2ccccc2-c2ccccc21)*; Boc = CC(C)(C)OC(=O)*

For `Cc1occc1C(=S)Nc1ccc(Cl)c(C(=O)OC(C)C2CC2)c1` (stereo unspecified), the TGI stood at 31.8 µM in experiment [1]; 39.4 µM in experiment [2]; 45.7 µM in experiment [3]; 36.4 µM in experiment [4]; 51.5 µM in [5]; 48.8 µM in experiment [6]. Moreover, the TGI in experiment [7] was over 100 µM; in experiment [8], 51.3 µM; in experiment [9] it was 50.5 µM; in experiment [10], 39.9 µM; in experiment [11], 54.5 µM; in [12] it was over 100 µM. Also, the TGI in experiment [13] was 38.4 µM; in [14], 57.5 µM; in experiment [15], 57.7 µM; in experiment [16], 54.9 µM; in experiment [17], over 100 µM; in experiment [18] it was 60.1 µM. In addition, the TGI in experiment [19] was 40.1 µM.

As to `Brc1ccc2c([C@H]3CN[C@@H](c4c[nH]c5cc(Br)ccc45)CN3)c[nH]c2c1`, the TGI came to 15.6 µM in [1]; 6.6 µM in experiment [2]; 6.65 µM in [3]; 7.73 µM in experiment [4]; 12.2 µM in experiment [5]; 11.3 µM in experiment [6]. The TGI in experiment [7] was determined as 3.03 µM; in experiment [8], 2.91 µM; in experiment [9], 22.7 µM; in [10] it was 3.28 µM; in [11], 24.7 µM; in experiment [12], 7.39 µM. The TGI in [13] is 3.04 µM; in experiment [14] it was 6.48 µM; in experiment [15] it was 23.8 µM; in experiment [16], 23.2 µM; in experiment [17], 28.1 µM; in experiment [18] it was 7.15 µM. In experiment [19], the TGI came to 8.95 µM.

With `Cc1cc(Cc2c(F)c(F)c(C(c3cc(C)no3)c3c(F)c(F)c(F)c(F)c3F)c(F)c2F)on1` (stereo unspecified), the TGI in [1] is over 100 µM; in experiment [2] it was 8.08 µM; in [3] it was over 100 µM; in experiment [4], over 100 µM; in experiment [5], over 100 µM; in experiment [6] it was over 100 µM. Besides, the TGI in [7], in [8], in [9], in [10], in [11] and in experiment [12] was over 100 µM in each case. Further, the TGI in experiment [13] was 15.1 µM; in [14] it was over 100 µM; in experiment [15], over 100 µM; in experiment [16] it was over 100 µM; in experiment [17] it was over 100 µM; in experiment [18], over 100 µM. Further, the TGI in [19] was over 100 µM.

For the molecule `CCCCN1C(=O)c2c(-c3sccc3N)sc(-c3sccc3N)c2C1=O`, the TGI in [1] was over 100 µM; in experiment [2], 41 µM; in experiment [3], 97.3 µM; in experiment [4], over 100 µM; in experiment [5] it was over 100 µM; in experiment [6] it was over 100 µM. The TGI in [7] is over 100 µM; in experiment [8], over 46.7 µM; in experiment [9] it was 35.8 µM; in [10], over 100 µM; in experiment [11], over 88.9 µM; in [12], over 100 µM. Further, the TGI in experiment [13] was over 34.6 µM; in experiment [14], over 24.4 µM; in [15], 41.5 µM; in experiment [16] it was over 83.7 µM; in [17] it was over 100 µM; in [18], 55 µM. In [19], this molecule registered a TGI of over 100 µM.

In the case of `O=C/C=C/c1ccco1`, the TGI in [1], in [2], in [3], in experiment [4], in [5] and in experiment [6] was over 100 µM each time. Further, the TGI in experiment [7], in experiment [8], in experiment [9], in [10], in [11] and in [12] was over 100 µM in each case. In addition, the TGI in [13], in experiment [14], in experiment [15], in experiment [16], in [17] and in [18] was over 100 µM in each case. In addition, the TGI in experiment [19] was over 100 µM.

Take `CC(C)(C)c1cc(C2=NN(c3ccccc3)C(c3ccccc3)C2)cc(C(C)(C)C)c1O` (stereo unspecified): the TGI in experiment [1], in experiment [2], in experiment [3], in [4], in [5] and in experiment [6] was over 100 µM in each case. Moreover, the TGI in [7], in experiment [8], in experiment [9], in experiment [10], in [11] and in experiment [12] was over 100 µM each time. The TGI in experiment [13], in experiment [14], in experiment [15], in experiment [16], in [17] and in experiment [18] was over 100 µM throughout. This molecule gave a TGI in experiment [19] of over 100 µM.

On to `CC1OC(O[C@H]2C3C=CO[C@@H](OC4OC(CO)C(O)C(O)C4O)C3[C@@]3(COC(=O)/C=C/c4ccc(O)cc4)O[C@@H]23)C(O)C(O)C1O` (stereo partly specified), for which the TGI in [1], in experiment [2], in experiment [3], in [4], in [5] and in experiment [6] was over 100 µM throughout. Moreover, the TGI in experiment [7], in [8], in experiment [9], in [10], in experiment [11] and in [12] was over 100 µM throughout. Further, the TGI in experiment [13], in experiment [14], in experiment [15], in experiment [16], in experiment [17] and in experiment [18] was over 100 µM throughout. In experiment [19], this molecule registered a TGI of over 100 µM.

With `CCSc1cc(=O)n(C)c(=O)n1C`, the TGI in experiment [1], in experiment [2], in [3], in experiment [4], in experiment [5] and in [6] was over 100 µM in each case. The TGI in experiment [7], in [8], in [9], in experiment [10], in experiment [11] and in [12] was over 100 µM each time. In addition, the TGI in experiment [13], in [14], in experiment [15], in [16], in [17] and in experiment [18] was over 100 µM throughout. The molecule also came in with a TGI in [19] of over 100 µM.

As to `COc1ccc(OC)c(CC2CCc3nc(N)nc(N)c3C2)c1` (stereo unspecified), the TGI in experiment [1] was 28.9 µM; in experiment [2] it was 4.37 µM; in [3] it was over 100 µM; in experiment [4], 24.2 µM; in experiment [5] it was 77.4 µM; in experiment [6] it was over 100 µM. For the same molecule, the TGI in experiment [7] was over 100 µM; in experiment [8], 29.2 µM; in experiment [9], over 100 µM; in experiment [10], over 100 µM; in [11], 6.22 µM; in experiment [12] it was over 100 µM. Also, the TGI in experiment [13] is 27.7 µM; in experiment [14], over 100 µM; in experiment [15], 24.4 µM; in [16] it was over 100 µM; in experiment [17], 34.4 µM; in [18], over 100 µM. Also, in experiment [19], the TGI is over 49.8 µM.

For the molecule `CC(C)(C)OC(=O)NCCCCC(NC(=O)OCC1c2ccccc2-c2ccccc21)C(=O)N1CCCC1C(=O)NCC(N)=O` (stereo not drawn) (Fmoc-Lys(Boc)-Pro-Gly-NH2; configuration not given here), the TGI in experiment [1] is over 100 µM; in experiment [2], over 100 µM; in experiment [3], over 100 µM; in experiment [4], 34.5 µM; in experiment [5], 48.2 µM; in experiment [6] it was 30.1 µM. For the same molecule, the TGI in experiment [7] is over 100 µM; in experiment [8] it was 99.2 µM; in [9], 26.5 µM; in experiment [10], 38.3 µM; in experiment [11], over 100 µM; in experiment [12], over 100 µM. Moreover, the TGI is 49.9 µM in experiment [13]; 77.3 µM in experiment [14]; over 100 µM in experiment [15]; over 100 µM in experiment [16]; over 100 µM in [17]; over 100 µM in experiment [18]. Further, the TGI in experiment [19] is over 100 µM.

In the case of `Cc1noc2nnn(-c3ccc(Cl)cc3)c(=O)c12`, the TGI was determined as 13 µM in experiment [1]; 4.79 µM in experiment [2]; 25.7 µM in experiment [3]; 26 µM in [4]; 17.9 µM in experiment [5]; 13 µM in [6]. In addition, the TGI in experiment [7] is 11.3 µM; in [8], 11.9 µM; in [9], 26.5 µM; in [10] it was 31.1 µM; in experiment [11], 13.5 µM; in experiment [12], 27.7 µM. Also, the TGI in experiment [13] worked out at 17.9 µM; in [14] it was 1.94 µM; in [15], 29.7 µM; in experiment [16], 20.4 µM; in experiment [17], 20.9 µM; in [18], 3.11 µM. Besides, in experiment [19], the TGI came out at 20.5 µM.

`CN(C)c1ccccc1CN1CCCN(Cc2ccccc2N(C)C)C1c1ccncc1`: the TGI stood at 18.3 µM in experiment [1]; 22.4 µM in experiment [2]; 51.5 µM in [3]; 23.4 µM in experiment [4]; 14.8 µM in [5]; 34.6 µM in [6]. Besides, the TGI in [7] came out at 23.3 µM; in experiment [8], 30.3 µM; in [9] it was 32.9 µM; in experiment [10], 41.7 µM; in experiment [11], 34.6 µM; in experiment [12], 40.7 µM. The TGI turned out to be 23.8 µM in experiment [13]; 43.6 µM in experiment [14]; 30.3 µM in experiment [15]; 38 µM in experiment [16]; 7.98 µM in experiment [17]; 32.1 µM in [18]. Also, the TGI in [19] was 43 µM.

On to `CC1OC2(CC(OCc3ccccc3)C1OCc1ccccc1)OCCO2` (stereo unspecified), for which the TGI in experiment [1] is over 100 µM; in experiment [2], 74.4 µM; in experiment [3], over 100 µM; in experiment [4], over 100 µM; in [5] it was over 100 µM; in [6], over 100 µM. Besides, the TGI in experiment [7], in experiment [8], in [9], in [10], in experiment [11] and in experiment [12] was over 100 µM in each case. Besides, the TGI in experiment [13] is over 100 µM; in [14], 75.2 µM; in experiment [15], over 100 µM; in [16] it was over 100 µM; in experiment [17], over 100 µM; in experiment [18] it was over 100 µM. Moreover, the TGI in experiment [19] is over 100 µM.

For `CCOC(=O)C(Cl)(NC(=O)c1c(F)c(F)c(F)c(F)c1F)C(F)(F)F` (stereo unspecified), the TGI in experiment [1] was over 100 µM; in [2], over 100 µM; in [3] it was over 100 µM; in experiment [4], over 100 µM; in experiment [5], 75.3 µM; in experiment [6], 36.4 µM. The TGI in experiment [7], in experiment [8], in experiment [9], in experiment [10], in experiment [11] and in [12] was over 100 µM in each case. Besides, the TGI in experiment [13], in experiment [14], in experiment [15], in experiment [16], in experiment [17] and in [18] was over 100 µM in each case. The TGI in [19] is over 100 µM.
